According to patent US10752615B2, “Spirocyclic containing compounds and pharmaceutical uses thereof” (GB005, Inc., priority 2016, dated 2020):

Tests used:
[1] = tested on: PBMC stimulated with anti-CD3 and anti-CD28 antibodies; assay: CD3/CD28 mediated PBMC proliferation assay; conditions: Homo sapiens, 72 h, read-out: CD3/CD28 PMBC proliferation IC50 (nM)
Method: Individual wells of 96 well tissue culture plates were coated with 50 μL of 5 μg/mL anti-CD3 (OKT3, eBiosciences) overnight at 4° C. Human blood was collected in EDTA containing vacutainer tubes. […] The cells were placed in a humidified 37° C. incubator for 72 hours. Controls included unstimulated cells and media alone.

[2] = molecular target: BTK (Homo sapiens (Human), UniProt Q06187); assay: Kinase inhibition assay (Nanosyn, microfluidic detection), BTK; type: biochemical; conditions: 1 mM ATP, 3 hours at 25° C.
[3] = tested on: experimental autoimmune encephalomyelitis (EAE); assay: Experimental autoimmune encephalomyelitis (EAE) model of multiple sclerosis; type: in vivo, female C57BL/6 mice; conditions: oral gavage once daily, 30 mg/kg
Method: TEC kinases play important roles in immune cells and pathogenic microglia in multiple sclerosis. The efficacy of compound 16 was evaluated in experimental autoimmune encephalomyelitis (EAE), a mouse model of multiple sclerosis. […] A group of ten naïve C57BL/6 mice was maintained as a negative control. […] Mouse is not alert. 5.0—Death or severe paralysis resulting in euthanasia.

[4] = molecular target: TXK (Homo sapiens (Human), UniProt P42681); assay: Kinase inhibition assay (Nanosyn, microfluidic detection), TXK; type: biochemical; conditions: 1 mM ATP, 3 hours at 25° C.
Chain of TXK (P42681 whole entry): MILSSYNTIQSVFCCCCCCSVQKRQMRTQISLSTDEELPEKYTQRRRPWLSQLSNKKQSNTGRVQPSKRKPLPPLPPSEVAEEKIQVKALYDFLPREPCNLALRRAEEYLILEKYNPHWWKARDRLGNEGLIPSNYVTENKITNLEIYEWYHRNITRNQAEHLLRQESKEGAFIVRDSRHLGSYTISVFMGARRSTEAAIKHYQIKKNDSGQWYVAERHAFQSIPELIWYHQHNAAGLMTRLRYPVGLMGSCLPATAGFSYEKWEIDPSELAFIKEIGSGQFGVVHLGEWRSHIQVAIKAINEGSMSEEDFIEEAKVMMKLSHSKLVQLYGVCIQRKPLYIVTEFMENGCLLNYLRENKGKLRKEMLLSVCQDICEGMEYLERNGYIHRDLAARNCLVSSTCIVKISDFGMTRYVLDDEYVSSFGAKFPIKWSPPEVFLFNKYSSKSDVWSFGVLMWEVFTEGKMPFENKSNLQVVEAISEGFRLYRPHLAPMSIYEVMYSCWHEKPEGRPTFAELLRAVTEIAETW

Chain of BTK (Q06187 whole entry): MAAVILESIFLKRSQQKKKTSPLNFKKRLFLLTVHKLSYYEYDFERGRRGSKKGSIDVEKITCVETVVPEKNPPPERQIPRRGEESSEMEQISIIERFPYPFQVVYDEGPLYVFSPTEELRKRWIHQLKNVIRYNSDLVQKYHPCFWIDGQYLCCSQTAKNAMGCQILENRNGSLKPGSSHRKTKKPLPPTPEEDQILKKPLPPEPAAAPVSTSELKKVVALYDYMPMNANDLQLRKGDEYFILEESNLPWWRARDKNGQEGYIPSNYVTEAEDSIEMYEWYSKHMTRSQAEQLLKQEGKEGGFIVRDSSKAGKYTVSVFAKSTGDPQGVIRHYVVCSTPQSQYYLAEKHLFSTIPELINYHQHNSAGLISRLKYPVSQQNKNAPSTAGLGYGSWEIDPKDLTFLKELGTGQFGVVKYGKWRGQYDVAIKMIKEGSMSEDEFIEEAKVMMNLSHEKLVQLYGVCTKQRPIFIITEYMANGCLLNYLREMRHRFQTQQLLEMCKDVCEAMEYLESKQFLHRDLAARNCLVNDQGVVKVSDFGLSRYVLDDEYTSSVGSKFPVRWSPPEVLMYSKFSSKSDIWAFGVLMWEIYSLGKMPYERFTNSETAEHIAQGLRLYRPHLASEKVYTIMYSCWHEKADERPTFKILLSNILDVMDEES

SMILES | IC50 [2] | IC50 [4] | IC50 [1] | other results
C=CC(=O)N1CC[C@]2(C1)C[C@@H](n1c(NC(=O)c3cnc(C(C)C)s3)nc3cc(CN[C@@H](C)C(C)(C)C)ccc31)C2 [Compound 11] |  |  | > 300 nM | 
C=CC(=O)N1CCC2(CC1)CC(n1c(NC(=O)c3ccc(C(F)F)s3)nc3cc(CN[C@@H](C)C(C)(C)C)ccc31)C2 [Compound 12] |  |  | > 300 nM | 
C=CC(=O)N1CC[C@]2(C1)C[C@H](n1c(NC(=O)c3ccno3)nc3ccccc31)C2 [Compound 45] |  |  | 60.3 nM | 
C=CC(=O)N1CC[C@]2(C1)C[C@@H](n1c(NC(=O)c3ccc(-c4cnco4)s3)nc3c(Cl)cccc31)C2 [Compound 72] |  |  | > 300 nM | 
C=CC(=O)N1CC[C@]2(C1)C[C@H](n1c(NC(=O)c3cc4c(s3)CCCC4)nc3ccccc31)C2 [Compound 80] |  |  | > 300 nM | 
C=CC(=O)N1CC[C@]2(C1)C[C@H](n1c(NC(=O)c3cc4ccccc4s3)nc3ccccc31)C2 [Compound 81] |  |  | > 300 nM | 
C=CC(=O)N1CC[C@]2(C1)C[C@@H](n1c(NC(=O)c3ccc(-c4cnco4)s3)nc3c(OC)cccc31)C2 [Compound 88] |  |  | > 300 nM | 
C=CC(=O)N1CC[C@]2(C1)C[C@H](n1c(NC(=O)c3ccc(C(=O)O)s3)nc3ccccc31)C2 [Compound 100] |  |  | > 300 nM | 
C=CC(=O)N1CC[C@]2(C1)C[C@H](n1c(NC(=O)c3ccc(NC(=O)C4CCOCC4)s3)nc3ccccc31)C2 [Compound 112] |  |  | > 300 nM | 
C=CC(=O)N1CC[C@]2(C1)C[C@H](n1c(NC(=O)c3ccc(-c4ccncn4)s3)nc3ccccc31)C2 [Compound 133] | 3.27 nM | 0.37 nM |  | 
C=CC(=O)N1CC[C@]2(C1)C[C@H](n1c(NC(=O)c3ccc(-c4ccnc(NC)n4)s3)nc3ccccc31)C2 [Compound 137] | 0.98 nM | 0.76 nM |  | 
C=CC(=O)N1CC[C@]2(C1)C[C@H](n1c(NC(=O)c3ccc(-c4cncc(NC)n4)s3)nc3ccccc31)C2 [Compound 140] | 0.54 nM | 0.2 nM |  | 
C=CC(=O)N1CC[C@]2(C1)C[C@H](n1c(NC(=O)c3ccc(-c4cc(N)ncn4)s3)nc3ccccc31)C2 [Compound 141] | 1.83 nM | 0.29 nM |  | 
C=CC(=O)N1CC[C@]2(C1)C[C@H](n1c(NC(=O)c3ccc(-c4cncc(NC)c4)s3)nc3ccccc31)C2 [Compound 142] | 0.62 nM | 0.48 nM |  | 
C=CC(=O)N1CC[C@]2(C1)C[C@H](n1c(NC(=O)c3ccc(-c4ccc(CO)nc4)s3)nc3ccccc31)C2 [Compound 144] | 3.45 nM | 1.51 nM |  | 

The next lines start with results.

IC50 [2] | IC50 [4] | SMILES | IC50 [1] | other results
0.94 nM |  | C=CC(=O)N1CC[C@]2(C1)C[C@H](n1c(NC(=O)c3ccc(-c4cnco4)s3)nc3ccccc31)C2 [Compound 16] |  | disease severity (EAE score) ([3]; in PEG 400, treated after onset of symptoms, mice): greatly attenuated; symptoms of neurological deficit ([3]; versus vehicle treated animals that rapidly progressed): minimal symptoms
8.36 nM | 1.01 nM | C=CC(=O)N1CC[C@]2(C1)C[C@H](n1c(NC(=O)c3ccc(-c4cncnc4C)s3)nc3ccccc31)C2 [Compound 134] |  | 
12.7 nM | 8.67 nM | C=CC(=O)N1CC[C@]2(C1)C[C@H](n1c(NC(=O)c3ccc(-c4cnc(C)nc4)s3)nc3ccccc31)C2 [Compound 135] |  | 
1.54 nM | 0.75 nM | C=CC(=O)N1CC[C@]2(C1)C[C@H](n1c(NC(=O)c3ccc(-c4cccc(NC)n4)s3)nc3ccccc31)C2 [Compound 139] |  | 
7.92 nM | 9.08 nM | C=CC(=O)N1CC[C@]2(C1)C[C@H](n1c(NC(=O)c3ccc(-c4ccc(C)nc4)s3)nc3ccccc31)C2 [Compound 143] |  | 
0.49 nM | 0.2 nM | C=CC(=O)N1CC[C@]2(C1)C[C@H](n1c(NC(=O)c3ccc(-c4cc(NC)ncn4)s3)nc3ccccc31)C2 [Compound 145] |  | 
0.57 nM | 0.22 nM | C=CC(=O)N1CC[C@]2(C1)C[C@H](n1c(NC(=O)c3ccc(-c4ccnc(CO)c4)s3)nc3ccccc31)C2 [Compound 146] |  | 
0.41 nM | 0.21 nM | C=CC(=O)N1CC[C@]2(C1)C[C@H](n1c(NC(=O)c3ccc(-c4ccnc(C)c4)s3)nc3ccccc31)C2 [Compound 147] |  | 
0.7 nM | 0.24 nM | C=CC(=O)N1CC[C@]2(C1)C[C@H](n1c(NC(=O)c3ccc(-c4c[nH]nc4C)s3)nc3ccccc31)C2 [Compound 156] |  | 
